Test results as given in ChEMBL document CHEMBL1133027, “Novel inhibitors of HIV protease: design, synthesis and biological evaluation of picomolar inhibitors containing cyclic P1/P2 scaffolds” (Bioorg Med Chem Lett, 2000).

Assays:
MT4 = test: Compound was evaluated for its antiviral inhibition in MT-4 cell culture; type: functional, cell-based; conditions: Homo sapiens
[1] = molecular target: Human immunodeficiency virus type 1 protease (Human immunodeficiency virus 1, UniProt Q72874); test: Inhibition of HIV protease

SMILES | IC50 (MT4) | Ki [1]
CC(C)(C)NC(=O)[C@@H]1C[C@@H]2CCCC[C@@H]2CN1C[C@@H](O)[C@H](Cc1ccccc1)NC(=O)[C@H](CC(N)=O)NC(=O)c1ccc2ccccc2n1 | 20 nM | 
CC(C)(C)NC(=O)[C@@H]1CN(Cc2cccnc2)CCN1C[C@@H](O)C[C@@H](Cc1ccccc1)C(=O)N[C@H]1c2ccccc2C[C@H]1O | 40 nM | 
O=C(N[C@H]1c2ccccc2C[C@H]1O)[C@H](Cc1ccccc1)C[C@@H](O)CN1C(=O)CC[C@@H]1Cc1ccccc1 | > 50000 nM | 
O=C(N[C@H]1c2ccccc2C[C@H]1O)[C@H](Cc1ccccc1)C[C@H](O)CN1C(=O)CC[C@@H]1Cc1ccccc1 | > 50000 nM | 330 nM
O=C(N[C@H]1c2ccccc2C[C@H]1O)[C@H](Cc1ccccc1)C[C@H](O)CN1C(=O)N(Cc2ccccc2)C[C@@H]1Cc1ccccc1 | 300 nM | 1.2 nM
O=C(N[C@H]1c2ccccc2C[C@H]1O)[C@H](Cc1ccccc1)C[C@H](O)CN1[C@@H](Cc2ccccc2)C[C@H](Cc2ccccc2)S1(=O)=O |  | 16 nM
CC(C)c1nc(CN(C)C(=O)N[C@H](C(=O)N[C@@H](Cc2ccccc2)C[C@H](O)[C@H](Cc2ccccc2)NC(=O)OCc2cncs2)C(C)C)cs1 [RITONAVIR] | 210 nM | 
O=C(N[C@H]1c2ccccc2C[C@H]1O)[C@H](Cc1ccccc1)C[C@H](O)CN1[C@@H](Cc2ccccc2)CN(Cc2ccccc2)S1(=O)=O | 1500 nM | 0.8 nM
O=C(N[C@H]1c2ccccc2C[C@H]1O)[C@H](Cc1ccccc1)C[C@H](O)CN1C(=O)[C@H](Cc2ccccc2)C[C@@H]1Cc1ccccc1 |  | > 0.5 nM
Cc1c(O)cccc1C(=O)N[C@@H](CSc1ccccc1)[C@H](O)CN1C[C@H]2CCCC[C@H]2C[C@H]1C(=O)NC(C)(C)C | 50 nM | 
O=C(N[C@H]1c2ccccc2C[C@H]1O)[C@H](Cc1ccccc1)C[C@H](O)CN1C(=O)[C@@H](Cc2ccccc2)C[C@@H]1Cc1ccccc1 | 300 nM | 0.05 nM
O=C1N[C@H](Cc2ccccc2)C(=O)[C@H]1Cc1ccccc1 | 300 nM | 0.05 nM
CC(C)CN(C[C@@H](O)[C@H](Cc1ccccc1)NC(=O)O[C@H]1CCOC1)S(=O)(=O)c1ccc(N)cc1 | 100 nM | 
